Where two headings read alike, the source gives them in different places. Where a SMILES comes first, the peptide text is derived from it. [ ]: non-standard residue; d: D form. dCha = N[C@H](CC1CCCCC1)C(=O)O
B1: C5a: human recombinant C5a, 74 amino acid complement glycoprotein (protein)
chain: TLQKKIEEIAAKYKHSVVKKCCYDGACVNNDETCEQRAARISLGPRCIKAFTECCVVASQLRANISHKDMQLGR

Experiments:
[1] = target: T1, C5a receptor (Homo sapiens, UniProt P21730); experiment: Myeloperoxidase release from human PMNs mediated by 100 nM C5a (antagonist potency); assay type: cell-based; details: for IC50: 50% inhibition of C5a (100 nM)-caused release of MPO from PMNs, mean ± SE, read-out: pD2 ± SE (antagonist potency) (converted)
T1 construct: endogenous in cells; host or cells: fresh human polymorphonuclear leukocytes (PMNs), intact cells
T1 sequence (P21730 1-350): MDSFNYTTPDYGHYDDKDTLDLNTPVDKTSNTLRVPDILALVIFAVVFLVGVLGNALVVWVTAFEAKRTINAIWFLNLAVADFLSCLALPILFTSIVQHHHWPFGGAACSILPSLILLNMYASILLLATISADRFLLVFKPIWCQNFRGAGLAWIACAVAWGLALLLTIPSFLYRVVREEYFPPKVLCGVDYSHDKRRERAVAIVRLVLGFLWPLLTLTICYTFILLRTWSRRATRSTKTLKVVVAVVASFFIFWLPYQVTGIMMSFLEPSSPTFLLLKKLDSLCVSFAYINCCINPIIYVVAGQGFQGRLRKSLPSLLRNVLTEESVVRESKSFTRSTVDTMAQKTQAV

[2] = target: T1, C5a receptor; experiment: Agonist activity in human PMNs; assay type: cell-based
Protocol: Cells were isolated as previously described (Sanderson et al, 1995) and incubated with cytochalasin B (5 μg/mL, 15 min, 37° C.). Hank's Balanced Salt solution containing 0.15% gelatin and peptide was added on to a 96 well plate (total volume 100 μL/well), followed by 25 μL cells (4×10^6/mL). To assess the capacity of each peptide to antagonise C5a, cells were incubated for 5 min at 37° C. with each peptide, followed by addition of C5a (100 nM) and further incubation for 5 min. Then 50 μL of sodium phosphate (0.1M, pH 6.8) was added to each well, the plate was cooled to room temperature, and 25 μL of a fresh mixture of equal volumes of dimethoxybenzidine (5.7 mg/mL) and H2O2 (0.51%) was added to each well. The reaction was stopped at 10 min by addition of 2% sodium azide. Absorbances were measured at 450 nm in a Bioscan 450 plate reader, corrected for control values (no peptide), and analysed by non-linear regression.

[3] = target: T2, C5aR (Homo sapiens, UniProt P21730); experiment: Receptor-binding assay: inhibition of 125I-C5a binding to intact human PMNs
T2 construct: endogenous in cells; host or cells: fresh human polymorphonuclear leukocytes (PMNs), intact cells
T2 sequence (P21730 1-350): T1 sequence (P21730 1-350)

[4] = tested on: carrageenan-induced paw oedema in Wistar rats; experiment: Carrageenan-induced rat paw oedema; assay type: in vivo; details: 1 mg/kg i.p. 30 min prior to carrageenan, after 180 and 270 min
Protocol: Alternatively, a routine carrageenan paw oedema was developed in Wistar rats by administering a pedal injection of carrageenan to elicit oedema which is visible in 2 h and maximised in 4 h. […] See Fairlie, D. P. et al (1987). Also see Walker and Whitehouse (1978).
Paw swelling was measured for up to 4.5 hr.

[5] = tested on: human fetal artery; details: C5a agonist analogues; cited from earlier work
[6] = target: T1, C5a receptor; details: human PMN; C5a agonist analogues; read-out: PMN Enzyme Release EC50; cited from earlier work
[7] = target: T2, C5aR; details: cited from earlier work
[8] = tested on: C5a-induced neutropenia in Wistar rats; experiment: C5a-induced neutropenia in vivo; details: 1 mg/kg i.v. given prior to 2 μg C5a i.v.
Protocol: Compounds were evaluated in an acute model of C5a-induced neutropenia. Transient neutropenia maximises 5 min after i.v. C5a and is profound, with >90% of circulating neutrophils disappearing from circulation at effective doses of C5a, as shown in FIG. 8. The neutropenia is due to transient adherence of circulating neutrophils to the vascular endothelium.

[9] = tested on: LPS-induced neutropenia in Wistar rats; experiment: LPS-induced neutropenia and haematocrit change; assay type: in vivo
Protocol: LPS causes rapid neutropenia in rats. If this effect of LPS is blocked by C5a antagonists, then C5a may be of major importance in the acute effects of LPS, and the results shown in FIG. 9 were in agreement with this hypothesis. C5a antagonists were injected (bolus i.v.) 10 min prior to challenge with LPS. Rats were anaesthetised, and blood samples (0.3 ml) were taken for measurements of PMNs. PMNs are isolated and quantified.

[10] = dose range 0.1 nM-1 mM, human PMNs
[11] = 50% inhibition in the binding of [125I]C5a to intact PMNs, mean ± SE, read-out: pD2 ± SE (binding) (converted)
[12] = PMN C5aR, Finch et al, 1997, read-out: Binding Affinity IC50

Row | Molecule | Agonist Activity [2, 10] | EC50 [5] | EC50 [6] | IC50 [7, 12] | further results
1 | CN[C@@H](Cc1ccccc1)C(=O)N[C@@H](CCCCN)C(=O)N1CCC[C@H]1C(=O)N[C@H](CC1CCCCC1)C(=O)N[C@@H](Cc1c[nH]c2ccccc12)C(=O)N[C@H](CCCNC(=N)N)C(=O)O [Compound 7, N-methylphenylalanine-lysine-proline-D-cyclohexylalanine-tryptophan-D-arginine, reference compound] | no agonist properties | – | – | – | antagonist activity against C5a and agonist decapeptide analogue 4 ([1]; human PMNs): shows antagonist activity; Agonist Activity ([2]; dose range 0.1 nM-1 mM, human PMNs, listed as SEQ. ID NO: 7): No
2 | CN[C@@H](Cc1ccccc1)C(=O)N[C@@H](CCCCN)C(=O)N1CCC[C@H]1C(=O)N[C@H](CC1CCCCC1)C(=O)N[C@@H](Cc1c[nH]c2ccccc12)C(=O)N[C@H](CCCNC(=N)N)C(N)=O [Compound 8, MeFKP(dCha) Wr-CONH2] | No | – | – | – | reduction of receptor-affinity versus 7 ([3]; conversion to the amide): approximately 5 fold; reduction of antagonist activity versus 7 ([1]; conversion to the amide): approximately 5 fold
3 | CN[C@@H](Cc1ccccc1)C(=O)N[C@@H](CCCCN)C(=O)N1CCC[C@H]1C(=O)N[C@H](CC1CCCCC1)C(=O)N[C@@H](Cc1c[nH]c2ccccc12)C(=O)N[C@@H](CCCNC(=N)N)C(=O)O [Compound 9, MeFKP(dCha)WR] | No | – | – | – | –
4 | CC(=O)N[C@@H](Cc1ccccc1)C(=O)N[C@H]1CCCCNC(=O)[C@@H](CCCNC(=N)N)NC(=O)[C@H](Cc2c[nH]c3ccccc23)NC(=O)[C@@H](CC2CCCCC2)NC(=O)[C@@H]2CCCN2C1=O [Compound 11, Ac-F-[KP(dCha)Wr] | No | – | – | – | Agonist Activity ([2]; Table 5, cyclic molecules): No
5 | CC(=O)N[C@@H](Cc1ccccc1)C(=O)N[C@H]1CCCNC(=O)[C@@H](CCCNC(=N)N)NC(=O)[C@H](Cc2c[nH]c3ccccc23)NC(=O)[C@@H](CC2CCCCC2)NC(=O)[C@@H]2CCCN2C1=O [Compound 12, Ac-F-[OP(dCha)Wr] | No | – | – | – | increase in receptor-binding affinity over decapeptide C-terminus of C5a (1) [3]: 10^4; times less active than 17 in vitro as a C5a antagonist in PMNs [1]: 100 times; Agonist Activity ([2]; Table 5, cyclic molecules): No; development of carrageenan paw oedema (paw swelling) [4]: significantly inhibits development of the oedema
6 | N=C(N)NCCC[C@@H]1NC(=O)[C@H](Cc2c[nH]c3ccccc23)NC(=O)[C@@H](CC2CCCCC2)NC(=O)[C@@H]2CCCN2C(=O)[C@@H](NC(=O)[C@@H](N)Cc2ccccc2)CCNC1=O [Compound 15, F-[X^2PdChaWR]] | – | – | – | – | IC50 [3, 11]: 0.316 µM; IC50 ([3]; Table 5, cyclic molecules, read-out: Receptor Affinity): 0.3 µM; IC50 [1]: 0.0437 µM; inhibition of the action of C5a and the binding of 125I-C5a to its receptor ([1]; in vitro on human PMNs): potent inhibitors at nM concentrations; Agonist Activity ([2]; Table 5, cyclic molecules): No
7 | CC(=O)N[C@@H](Cc1ccccc1)C(=O)N[C@H]1CCCCNC(=O)[C@H](CCCNC(=N)N)NC(=O)[C@H](Cc2c[nH]c3ccccc23)NC(=O)[C@@H](CC2CCCCC2)NC(=O)[C@@H]2CCCN2C1=O [Compound 18] | – | – | – | – | Agonist Activity ([2]; Table 5, cyclic molecules): No
8 | N=C(N)NCCC[C@H]1NC(=O)[C@H](Cc2c[nH]c3ccccc23)NC(=O)[C@@H](CC2CCCCC2)NC(=O)[C@@H]2CCCN2C(=O)[C@H](Cc2c[nH]c3ccccc23)NC(=O)[C@H](Cc2ccccc2)NC1=O [Compound 19, [FWPdChaWr]] (cyclo(FWP[dCha]W[dR]); ring closure inferred) | – | – | – | – | pD2 ± SE (binding) ([3]; 50% inhibition in the binding of [125I]C5a to intact PMNs, mean ± SE): 4.37 ± 0.36
9 | N=C(N)NCCC[C@H]1NC(=O)[C@H](Cc2c[nH]c3ccccc23)NC(=O)[C@@H](CC2CCCCC2)NC(=O)[C@@H]2CCCN2C(=O)[C@@H](NC(=O)[C@@H](N)Cc2ccccc2)CCCCNC1=O [Compound 26, F-[KPdChaWr]] | – | – | – | – | IC50 [3, 11]: 8.13 µM; IC50 [1]: 2.82 µM
10 | N=C(N)NCCC[C@@H]1NC(=O)[C@H](Cc2c[nH]c3ccccc23)NC(=O)[C@@H](CC2CCCCC2)NC(=O)[C@@H]2CCCN2C(=O)[C@@H](NC(=O)[C@@H](N)Cc2ccccc2)CCCCNC1=O [Compound 28, F-[KPdChaWR]] | – | – | – | – | IC50 [3, 11]: 0.316 µM; IC50 [1]: 0.204 µM
11 | C5a12-20-ahxYSFKPMPLaR [Compound 6] | – | 0.08 µM | 0.7 µM | 0.07 µM | –
12 | C5a37-46-ahxYSFKPMPLaR [Compound 5] | – | 0.06 µM | 5.9 µM | 0.7 µM | –
13 | C5a65-74 (ISHKDMQLGR) [Compound 1, decapeptide C-terminus of C5a] | – | > 1000 µM | > 1000 µM | > 1000 µM | IC50 ([7]; literature values (Finch et al, 1997; Kawai et al, 1991), read-out: Receptor Affinity IC50): > 1000 µM
14 | F-[OPdChaWR] | – | – | – | – | C5a-induced neutropenia [8]: inhibits C5a-induced neutropenia; LPS-induced neutropenia ([9]; 1 mg/kg i.v. 10 min prior to i.v. LPS, rats): inhibits neutropenia; LPS-induced changes in haematocrit ([9]; 0.03-10 mg/kg i.v., 10 min prior to LPS 1 mg/kg i.v., Wistar rats): inhibition of LPS-induced neutropenia and changes in haematocrit
15 | YSFKDMPLaR [Compound 3, C5a agonist analogue] | – | 0.5 µM | 72 µM | 3.7 µM | –
16 | YSFKDMQLGR [Compound 2, C5a agonist analogue] | – | 9.6 µM | 92 µM | 1.3 µM | –
17 | B1 | Yes | 0.02 µM | 0.03 µM | 0.0006 µM | –
